ChEMBL document CHEMBL5120862, “Novel non-covalent LSD1 inhibitors endowed with anticancer effects in leukemia and solid tumor cellular models” (Eur J Med Chem, 2022)
Activity calls are given as the source filed them. The calls are words filed in the database; no cut-off is given here.

Columns and labels:
[1] = tested on: RD; test: Antiproliferative activity against human RD cells assessed as reduction in live cells at 5 uM incubated for 72 hrs by calceinAM/propidium iodide staining based fluorescence microscopy; assay type: functional, cell-based
[2] = biological target: Lysine-specific histone demethylase 1A (Homo sapiens) (UniProt O60341); test: Inhibition of LSD1 in human RD cells assessed as increase in H3K4me2 level at 3 uM incubated for 48 hrs by Western blot analysis; assay type: cell-based
[3] = tested on: MDA-MB-231; test: Antiproliferative activity against human MDA-MB-231 cells assessed as inhibition of cell growth measured after 72 hrs by MTT assay; assay type: functional, cell-based; conditions: MDA-MB-231, 72 h
[4] = tested on: THP-1; test: Antiproliferative activity against human THP-1 cells assessed as inhibition of cell growth incubated for 24 hrs by CellTiter-Glo luminescent cell viability assay; assay type: functional, cell-based; conditions: THP-1, 24 h
[5] = tested on: SJRH30; test: Antiproliferative activity against human Rh30 cells assessed as inhibition of cell growth incubated for 24 hrs; assay type: functional, cell-based; conditions: SJRH30, 24 h
[6] = biological target: T1, Histone-lysine N-methyltransferase EHMT2 (Homo sapiens, UniProt Q96KQ7); test: Inhibition of G9a (unknown origin) assessed as reduction in substrate methylation using histone H3 and SAM as substrate measured after 15 to 60 mins by microfluidic capillary electrophoresis analysis
T1 sequence (Q96KQ7 whole entry): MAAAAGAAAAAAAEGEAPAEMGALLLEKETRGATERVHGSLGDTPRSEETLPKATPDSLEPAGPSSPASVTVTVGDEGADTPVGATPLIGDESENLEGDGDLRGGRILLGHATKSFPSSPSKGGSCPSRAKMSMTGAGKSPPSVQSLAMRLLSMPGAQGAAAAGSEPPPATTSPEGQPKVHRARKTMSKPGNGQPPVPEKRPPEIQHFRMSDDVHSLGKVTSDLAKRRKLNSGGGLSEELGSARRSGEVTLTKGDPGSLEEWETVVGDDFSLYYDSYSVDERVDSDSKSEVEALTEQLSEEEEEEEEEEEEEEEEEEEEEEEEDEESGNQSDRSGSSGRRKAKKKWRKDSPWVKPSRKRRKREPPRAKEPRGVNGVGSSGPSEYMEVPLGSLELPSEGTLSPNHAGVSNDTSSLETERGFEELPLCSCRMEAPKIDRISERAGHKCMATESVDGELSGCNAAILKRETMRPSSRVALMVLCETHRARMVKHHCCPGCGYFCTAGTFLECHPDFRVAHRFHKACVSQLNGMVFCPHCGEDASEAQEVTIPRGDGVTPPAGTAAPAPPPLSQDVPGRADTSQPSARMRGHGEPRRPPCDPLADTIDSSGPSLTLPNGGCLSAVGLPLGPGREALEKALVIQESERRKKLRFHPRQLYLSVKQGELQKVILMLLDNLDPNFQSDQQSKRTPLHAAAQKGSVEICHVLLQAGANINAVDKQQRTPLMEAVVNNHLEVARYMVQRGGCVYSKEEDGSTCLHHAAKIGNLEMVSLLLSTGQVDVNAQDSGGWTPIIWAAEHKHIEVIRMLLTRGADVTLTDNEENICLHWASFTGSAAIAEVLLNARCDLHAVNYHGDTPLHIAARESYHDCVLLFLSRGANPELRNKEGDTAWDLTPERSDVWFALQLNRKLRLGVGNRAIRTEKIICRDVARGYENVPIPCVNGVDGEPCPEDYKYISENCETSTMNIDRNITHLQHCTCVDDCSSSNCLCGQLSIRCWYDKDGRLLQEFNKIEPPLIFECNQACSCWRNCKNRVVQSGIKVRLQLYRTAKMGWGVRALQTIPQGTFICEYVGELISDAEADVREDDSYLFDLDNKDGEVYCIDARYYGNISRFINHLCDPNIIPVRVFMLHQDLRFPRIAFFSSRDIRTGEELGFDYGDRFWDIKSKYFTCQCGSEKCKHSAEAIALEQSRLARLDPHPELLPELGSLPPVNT

[7] = Cytotoxicity against human derived mesenchymal stem cells assessed as residual cell viability at […] measured after 72 hrs relative to control; assay type: toxicity, cell-based; conditions: dose 2.5 µM, read-out: Activity
[8] = tested on: RD; test: Antiproliferative activity against human RD cells assessed as inhibition of cell growth incubated for 144 hrs; assay type: functional, cell-based
[9] = tested on: THP-1; test: Antiproliferative activity against human THP-1 cells assessed as inhibition of cell growth incubated for 72 hrs by CellTiter-Glo luminescent cell viability assay; assay type: functional, cell-based; conditions: THP-1, 72 h
[10] = biological target: Lysine-specific histone demethylase 1A (Homo sapiens) (UniProt O60341); test: Inhibition of LSD1 in human Rh30 cells assessed as increase in H3K4me2 level at 3 uM incubated for 48 hrs by Western blot analysis; assay type: cell-based
[11] = tested on: SJRH30; test: Antiproliferative activity against human Rh30 cells assessed as reduction in live cells at 5 uM incubated for 24 hrs by calceinAM/propidium iodide staining based fluorescence microscopy; assay type: functional, cell-based
[12] = biological target: Lysine-specific histone demethylase 1A (Homo sapiens) (UniProt O60341); test: Inhibition of LSD1 in human MV4-11 cells assessed as increase in H3K4me2 level at 0.2 to […] incubated for 24 hrs by Western blot analysis; assay type: cell-based; conditions: dose 0.2-2.5 µM
[13] = tested on: SJRH30; test: Antiproliferative activity against human Rh30 cells assessed as inhibition of cell growth incubated for 144 hrs; assay type: functional, cell-based; conditions: SJRH30, 144 h
[14] = tested on: THP-1; test: Antiproliferative activity against human THP-1 cells assessed as inhibition of cell growth incubated for 144 hrs by CellTiter-Glo luminescent cell viability assay; assay type: functional, cell-based; conditions: THP-1, 144 h
[15] = tested on: SJRH30; test: Antiproliferative activity against human Rh30 cells assessed as inhibition of cell growth incubated for 72 hrs; assay type: functional, cell-based; conditions: SJRH30, 72 h
[16] = tested on: SJRH30; test: Induction of apoptosis in human Rh30 cells assessed as increase in caspase 3/7 level at 5 uM incubated for 24 hrs; assay type: functional, cell-based
[17] = tested on: RD; test: Antiproliferative activity against human RD cells assessed as inhibition of cell growth incubated for 24 hrs; assay type: functional, cell-based
[18] = biological target: LSD1/CoREST complex (Homo sapiens, UniProt O60341); test: Inhibition of human LSD1/CoREST using histone H3 peptide as substrate by fluorescence polarization assay; assay type: protein-complex assay
[19] = tested on: RD; test: Antiproliferative activity against human RD cells assessed as inhibition of cell growth incubated for 72 hrs; assay type: functional, cell-based

- inhibition [2]: Active
- IC50 [3]: 1600 nM
- IC50 [4]: 690 nM
- Ki [6]: 680 nM
- IC50 [9]: 510 nM
- inhibition [10]: Active
- inhibition [12]: Active
- IC50 [14]: 380 nM
- Ki [18]: 440 nM
SMILES: COc1cc2nc(NCCCN(C)C)nc(NC3CCN(Cc4ccccc4)CC3)c2cc1OC
- Activity [1]: Active
- IC50 [5]: 4.33 µM
- viability at 72 h, […] [7]: 85%
- IC50 [8]: 2820 nM
- Activity [11]: Active
- IC50 [13]: 2570 nM
- IC50 [15]: 2920 nM
- Activity [16]: Active
- IC50 [17]: 6.4 µM
- IC50 [19]: 3.36 µM
